Counter-ions that a name gives are not always drawn.

What all share (format): physicochemical
Data set [1] is described as follows: Bulk density, tapped density and Carr index. The note with it: spray dried amorphous ipatasertib monohydrochloride powder; monohydrochloride.
The nature of data set [2]: Solid state by X-ray powder diffraction. The note with it: * indicates absence of crystalline API; monohydrochloride. The text has this:
Bragg's law describes the diffraction of crystalline material with the equation “2d·sin(theta)=n·lambda”, wherein “d” denotes perpendicular distance (in Angstroms) between pairs of adjacent planes in a crystal (“d-spacing”), “theta” denotes the Bragg angle, “lambda” denotes the wavelength and “n” is an integer. When Bragg's law is fulfilled, the reflected beams are in phase and interfere constructively so that Bragg diffraction peaks are observed in the X-ray diffraction pattern. At angles of incidence other than the Bragg angle, reflected beams are out of phase and destructive interference or cancellation occurs. […] The XRPD pattern of an amorphous material is further characterized by one or more amorphous halos.
The term “XRPD” denotes the analytical method of X-Ray Powder Diffraction. The repeatability of the angular values is in the range of 2Theta±0.2°, more particularly in the range of 2Theta±0.1°. The term “approximately” given in combination with an angular value denotes the variance which is in the range of 2Theta±0.2°, particularly in the range of 2Theta±0.1°. The relative XRPD peak intensity is dependent upon many factors such as structure factor, temperature factor, crystallinity, polarization factor, multiplicity, and Lorentz factor. Relative intensities may vary considerably from one measurement to another due to preferred orientation effects. According to USP 941 (US Pharmacopoeia, 37th Edition, General Chapter 941), relative intensities between two samples of the same material may vary considerably due to “preferred orientation” effects. Anisotropic materials adopting preferred orientation will lead to anisotropic distribution of properties such as modulus, strength, ductility, toughness, electrical conductivity, thermal expansion, etc., as described e.g. in Kocks U. F. et al. (Texture and Anisotropy: Preferred Orientations in Polycrystals and Their Effect on Materials Properties, Cambridge University Press, 2000). In XRPD but also Raman spectroscopy, preferred orientations cause a change in the intensity distribution. Preferred orientation effects are particularly pronounced with crystalline APIs of relatively large particle size.

The nature of data set [3]: Particle size distribution (d10, d50, d90) by laser diffraction. The note with it: spray dried amorphous ipatasertib monohydrochloride powder. The text has this:
FIG. 6 illustrates particle size distribution of the material of Example 6C (Batch HQ00003) spray dried with two-feed nozzle as obtained by laser diffraction A bimodal particle size distribution is obvious. FIG. 9 illustrates particle size distribution of spray dried material with rotary wheel nozzle, i.e. of the material of batch BS1506SA03 of Example 13 (Table 20) obtained using a Malvern Mastersizer 2000 equipped with Hydro 2000S wet sample dispersion unit (Malvern Instruments Ltd, Malvern/UK). A monomodal particle size distribution is obvious. The terms “d50 value” (sometimes also referred to as “d(0.5)-value”) and “mass-median diameter” (or MMD) can be used interchangeably and denote the average particle size by mass, i.e. the average equivalent diameter of a particle, which is defined as the diameter where 50% (w) of the particles of the ensemble have a larger equivalent spherical diameter, and the other 50% (w) have a smaller equivalent spherical diameter. In analogy, the term “d10-value” denotes the particle diameter wherein 10% (w) of the particles of the ensemble have a smaller equivalent spherical diameter. In analogy, the term “d90-value” denotes the particle diameter wherein 90% (w) of the particles of the ensemble have a smaller equivalent spherical diameter.

For the compound `CC(C)NC[C@@H](C(=O)N1CCN(c2ncnc3c2[C@H](C)C[C@H]3O)CC1)c1ccc(Cl)cc1` [Composition 130710450, ipatasertib monohydrochloride], in data set [1], the Bulk density amounted to 0.42 gcm^−3 and the Tapped density is 0.60 gcm^−3. Also, in data set [2], the “Solid state / Polymorphy (X-Ray, XRPD)” value is listed as “Amorphous*”. Further, in data set [3], the “Particle size d10” value is recorded as 14 μm, the “Particle size d50” value was determined as 40 μm and the “Particle size d90” value is on record as 79 μm.

Regarding `CC(C)NC[C@@H](C(=O)N1CCN(c2ncnc3c2[C@H](C)C[C@H]3O)CC1)c1ccc(Cl)cc1` [Composition 130710451, ipatasertib monohydrochloride], in data set [1], the Bulk density is on record as 0.48 gcm^−3 and the Tapped density was 0.61 gcm^−3. Besides, the “Solid state / Polymorphy (X-Ray, XRPD)” value in data set [2] is reported as “Amorphous*”. Moreover, in data set [3], the “Particle size d10” value was determined as 17 μm, the “Particle size d50” value is reported as 45 μm and the “Particle size d90” value came out at 88 μm.

Regarding `CC(C)NC[C@@H](C(=O)N1CCN(c2ncnc3c2[C@H](C)C[C@H]3O)CC1)c1ccc(Cl)cc1` [Composition 130710452, ipatasertib monohydrochloride], in data set [1], the Bulk density came to 0.32 gcm^−3 and the Tapped density is listed as 0.47 gcm^−3. For the same compound, in data set [2], the “Solid state / Polymorphy (X-Ray, XRPD)” value is “Amorphous*”. Also, in data set [3], the “Particle size d10” value amounted to 8.4 μm, the “Particle size d50” value was found to be 21 μm and the “Particle size d90” value is listed as 42 μm.

In data set [1], `CC(C)NC[C@@H](C(=O)N1CCN(c2ncnc3c2[C@H](C)C[C@H]3O)CC1)c1ccc(Cl)cc1` [Composition 130810453, ipatasertib monohydrochloride] had a Bulk density of 0.30 gcm^−3 and a Tapped density of 0.45 gcm^−3. In addition, the “Solid state / Polymorphy (X-Ray, XRPD)” value in data set [2] is “Amorphous*”. Moreover, in data set [3], the “Particle size d10” value was 6.6 μm, the “Particle size d50” value is on record as 20 μm and the “Particle size d90” value was found to be 58 μm.

With `CC(C)NC[C@@H](C(=O)N1CCN(c2ncnc3c2[C@H](C)C[C@H]3O)CC1)c1ccc(Cl)cc1` [Composition 130810454, ipatasertib monohydrochloride], in data set [1], the Bulk density was found to be 0.47 gcm^−3 and the Tapped density came to 0.61 gcm^−3. Moreover, the “Solid state / Polymorphy (X-Ray, XRPD)” value in data set [2] is “Amorphous*”. In data set [3], the “Particle size d10” value stood at 12 μm, the “Particle size d50” value is listed as 36 μm and the “Particle size d90” value stood at 72 μm.

On to `CC(C)NC[C@@H](C(=O)N1CCN(c2ncnc3c2[C@H](C)C[C@H]3O)CC1)c1ccc(Cl)cc1` [Composition 140110401, ipatasertib monohydrochloride], for which, in data set [1], the Bulk density is on record as 0.47 gcm^−3 and the Tapped density stood at 0.61 gcm^−3. Also, the “Solid state / Polymorphy (X-Ray, XRPD)” value in data set [2] is reported as “amorphous*”. Also, in data set [3], the “Particle size d10” value is 11.4 μm, the “Particle size d50” value came out at 31 μm and the “Particle size d90” value worked out at 64 μm.

As to `CC(C)NC[C@@H](C(=O)N1CCN(c2ncnc3c2[C@H](C)C[C@H]3O)CC1)c1ccc(Cl)cc1` [Composition 140110402, ipatasertib monohydrochloride], in data set [1], the Bulk density came to 0.45 gcm^−3 and the Tapped density is 0.60 gcm^−3. Further, in data set [2], the “Solid state / Polymorphy (X-Ray, XRPD)” value is “amorphous*”. Also, in data set [3], the “Particle size d10” value was 7 μm, the “Particle size d50” value worked out at 20 μm and the “Particle size d90” value came to 46 μm.

Take `CC(C)NC[C@@H](C(=O)N1CCN(c2ncnc3c2[C@H](C)C[C@H]3O)CC1)c1ccc(Cl)cc1` [Composition 140110403, ipatasertib monohydrochloride]: in data set [1], the Bulk density was 0.37 gcm^−3 and the Tapped density stood at 0.52 gcm^−3. The “Solid state / Polymorphy (X-Ray, XRPD)” value in data set [2] is “amorphous*”. Also, in data set [3], the “Particle size d10” value was found to be 9.4 μm, the “Particle size d50” value worked out at 27 μm and the “Particle size d90” value is on record as 61 μm.

In data set [1], `CC(C)NC[C@@H](C(=O)N1CCN(c2ncnc3c2[C@H](C)C[C@H]3O)CC1)c1ccc(Cl)cc1` [Composition 140110404, ipatasertib monohydrochloride] showed a Bulk density of 0.49 gcm^−3 and a Tapped density of 0.63 gcm^−3. Besides, in data set [2], the “Solid state / Polymorphy (X-Ray, XRPD)” value was “amorphous*”. In data set [3], the “Particle size d10” value is reported as 12.5 μm, the “Particle size d50” value was determined as 47 μm and the “Particle size d90” value is 108 μm.

Consider `CC(C)NC[C@@H](C(=O)N1CCN(c2ncnc3c2[C@H](C)C[C@H]3O)CC1)c1ccc(Cl)cc1` [Composition 140110405, ipatasertib monohydrochloride], for which, in data set [1], the Bulk density was 0.28 gcm^−3 and the Tapped density was 0.40 gcm^−3. Moreover, the “Solid state / Polymorphy (X-Ray, XRPD)” value in data set [2] is recorded as “amorphous*”. Besides, in data set [3], the “Particle size d10” value was 9.3 μm, the “Particle size d50” value is 26 μm and the “Particle size d90” value turned out to be 57 μm.

In data set [1], `CC(C)NC[C@@H](C(=O)N1CCN(c2ncnc3c2[C@H](C)C[C@H]3O)CC1)c1ccc(Cl)cc1` [Composition 140110406, ipatasertib monohydrochloride] registered a Bulk density of 0.41 gcm^−3 and a Tapped density of 0.54 gcm^−3. The “Solid state / Polymorphy (X-Ray, XRPD)” value in data set [2] was “amorphous*”. Further, in data set [3], the “Particle size d10” value came to 10.2 μm, the “Particle size d50” value turned out to be 26 μm and the “Particle size d90” value is 53 μm.

For the compound `CC(C)NC[C@@H](C(=O)N1CCN(c2ncnc3c2[C@H](C)C[C@H]3O)CC1)c1ccc(Cl)cc1` [Composition 140110407, ipatasertib monohydrochloride], in data set [1], the Bulk density turned out to be 0.29 gcm^−3 and the Tapped density amounted to 0.43 gcm^−3. The “Solid state / Polymorphy (X-Ray, XRPD)” value in data set [2] is on record as “amorphous*”. Also, in data set [3], the “Particle size d10” value is 7.1 μm, the “Particle size d50” value came out at 16 μm and the “Particle size d90” value is recorded as 28 μm.

For the compound `CC(C)NC[C@@H](C(=O)N1CCN(c2ncnc3c2[C@H](C)C[C@H]3O)CC1)c1ccc(Cl)cc1` [Composition 140110408, ipatasertib monohydrochloride], in data set [1], the Bulk density is listed as 0.34 gcm^−3 and the Tapped density is 0.50 gcm^−3. Also, the “Solid state / Polymorphy (X-Ray, XRPD)” value in data set [2] is listed as “amorphous*”. In data set [3], the “Particle size d10” value was 9.3 μm, the “Particle size d50” value was found to be 26 μm and the “Particle size d90” value amounted to 58 μm.

On to `CC(C)NC[C@@H](C(=O)N1CCN(c2ncnc3c2[C@H](C)C[C@H]3O)CC1)c1ccc(Cl)cc1` [Composition 140110409, ipatasertib monohydrochloride], for which, in data set [1], the Bulk density worked out at 0.27 gcm^−3 and the Tapped density is listed as 0.39 gcm^−3. For the same compound, the “Solid state / Polymorphy (X-Ray, XRPD)” value in data set [2] is “amorphous*”. For the same compound, in data set [3], the “Particle size d10” value came out at 11.3 μm, the “Particle size d50” value is 35 μm and the “Particle size d90” value is reported as 79 μm.

With `CC(C)NC[C@@H](C(=O)N1CCN(c2ncnc3c2[C@H](C)C[C@H]3O)CC1)c1ccc(Cl)cc1` [Composition 140110410, ipatasertib monohydrochloride], in data set [1], the Bulk density is recorded as 0.18 gcm^−3 and the Tapped density came out at 0.30 gcm^−3. Further, the “Solid state / Polymorphy (X-Ray, XRPD)” value in data set [2] is given as “amorphous*”. In data set [3], the “Particle size d10” value is 8.1 μm, the “Particle size d50” value is recorded as 23 μm and the “Particle size d90” value came out at 50 μm.

In data set [1], `CC(C)NC[C@@H](C(=O)N1CCN(c2ncnc3c2[C@H](C)C[C@H]3O)CC1)c1ccc(Cl)cc1` [Composition 140110411, ipatasertib monohydrochloride] had a Bulk density of 0.37 gcm^−3 and a Tapped density of 0.51 gcm^−3. Also, the “Solid state / Polymorphy (X-Ray, XRPD)” value in data set [2] is “amorphous*”. Moreover, in data set [3], the “Particle size d10” value was 9.2 μm, the “Particle size d50” value was 27 μm and the “Particle size d90” value is 58 μm.

The values are drawn from patent US12440492B2, “Pharmaceutical compositions comprising AKT protein kinase inhibitors” (Genentech, Inc., priority 2016, dated 2025).
